In brackets after ≈: the same amount, converted by molar mass. Several values for one entry are separate records, joined by “and”; a condition that tells them apart may be missing. Equal values may be shown once. Read-outs that look alike come from different tables or passages of the source.
How the values were obtained:
C. neoformans = system: C. neoformans; set-up: method as in PMID 36960287; settings: against C. neoformans; cited from earlier work
C. neoformans H99 [1] = assay: Broth microdilution antifungal assay (MIC) in RPMI or urea medium; type: cell-based; settings: Cryptococcus neoformans
Procedure: (§1) C. neoformans H99 (or ATCC 208821), a standard strain, was used to evaluate the antifungal activity of BSU1-BSU11 and BTU1-BTU11 compounds using the broth microdilution method. The assay was performed in two different culture media: the standard medium RPMI 1640 buffered with […] (RMPI), and the Christensen broth (urea medium: 1 g/L peptone, 1 g/L dextrose, 5 g/L sodium chloride, 2 g/L potassium phosphate, 20 g/L urea, 12 mg/L phenol red, pH 7.0). The compounds were dissolved in dimethyl sulfoxide (DMSO) and diluted in both media, obtaining final concentrations from 0.03 to 128 mg/L in a 96-well plate and final DMSO concentration below 0.5%, considered nontoxic. For assay, yeasts were distributed in each well to obtain a final inoculum of 0.5–2.5 × 10^3 CFU/mL, and the plate was incubated at 35 °C for 48 h.
(§2) The MIC values were determined in both media and were defined as the lowest concentrations of BSU1-BSU11 and BTU1-BTU11 that inhibited 50% of fungal growth visually compared with untreated yeasts (growth control). In addition, the urease activity was indicated by medium color change from orange to pink due to ammonia production and the MICure was defined as the lowest concentration that inhibited the urease activity by visual inspection in urea medium with no color changes. For both assays, two controls were included: untreated yeast group for observation of fungal growth pattern or intracellular urease activity, and wells containing only medium for assay sterility control.

yeast urease activity = target: T1, yeast urease activity (Cryptococcus neoformans, UniProt O13465); assay: Inhibition of yeast urease activity in urea (Christensen) medium, colour change (MICure); type: cell-based
T1 construct: endogenous in cells; host or cells: Cryptococcus neoformans H99 (ATCC 208821) yeasts in Christensen urea broth
Procedure: The inhibitory activity against yeast urease was assessed using Christensen’s medium, which contains urea to induce URE1 gene expression. […] Even in the presence of fungal growth, inhibition of urease activity was evidenced by the absence of medium color change, indicating suppressed ammonia production.
as §1, §2

C. neoformans H99 [2] = assay: Minimum fungicidal concentration by subculturing after MIC reading; type: cell-based; settings: Cryptococcus neoformans
Procedure: After MIC readings, the MFC values were determined by subculturing, at 35 °C for 48 h, of all concentrations that inhibited the fungal growth; and then MFC was defined as the lowest concentration of the compound capable of reducing ≥99% viability of the initial fungal inoculum. ,

C. neoformans urease = target: T2, C. neoformans urease (Cryptococcus neoformans, UniProt O13465); assay: Urease activity in crude protein extract, indophenol method; type: biochemical; settings: ureIC50, BSU series
T2 construct: endogenous in cells; host or cells: Cryptococcus neoformans H99, lysed by sonication; dialysed and lyophilised soluble fraction (total protein)
Procedure: C. neoformans H99 yeasts were cultivated in 100 mL of Christensen broth for 72 h at 35 °C by shaking at 200 rpm for the obtention of urease as previously described. Briefly, the yeasts were ruptured using a lysis buffer (40 mM Tris-HCl, 20 mM dithiothreitol, 4% Triton X-100, 1 mM ethylenediaminetetraacetic acid, 2 mM phenylmethylsulfonyl fluoride, protease inhibitor cocktail) and an ultrasonic sonicator. After centrifugation, the soluble fraction was dialyzed in a dialysis membrane submerged in 10 mM sodium phosphate buffer, pH 7.0; the sample was lyophilized and stored at −20 °C. Before the assay, the sample was resuspended in 1 mL of sodium phosphate buffer (10 mM, pH 7.0), and the total protein was quantified by the Bradford method.
The urease activity was determined by the indophenol method. In a 96-well microplate, 10 μL of 100 mM urea was added to 45 μL of total protein and 45 μL of BSU1-BSU11 (concentrations of 0.06–1000 μg/L) in phosphate buffer. The reaction was maintained for 10 min under shaking at 600 rpm, at room temperature. Then, 45 μL of solution A (1% phenol; 0.005% sodium nitroprusside) and 70 μL of solution B (0.5% sodium hydroxide; 0.1% sodium hypochlorite) were immediately added to the wells in the dark and incubated for 5 min at 50 °C under shaking at 600 rpm. Urease activity was quantified by measuring absorbance at 670 nm. The inhibitory concentration capable of inhibiting 50% of urease activity (ureIC50) was determined by nonlinear regression calculation using the GraphPad Prism 5.0 software.

[3] = H99, 48 h, read-out: MIC RPMI, BSU series, 50% inhibition of fungal growth, RPMI medium, 35 °C, 48 h
[4] = H99, 48 h, read-out: MIC urea, BSU series, 50% inhibition of fungal growth, urea medium, 35 °C, 48 h
[5] = H99, Table S1, RPMI medium, C. neoformans H99
[6] = H99, Table S1, urea medium, C. neoformans H99
[7] = BSU series, 100% inhibition of yeast urease activity in urea medium
[8] = Table S1, urea medium, 100% inhibition of yeast urease activity
[9] = H99, BSU series, after assay in RPMI medium, ≥99% reduction of viability
[10] = H99, Table S1, RPMI medium line
[11] = H99, Table S1, urea medium line

T1 sequence (O13465 whole entry): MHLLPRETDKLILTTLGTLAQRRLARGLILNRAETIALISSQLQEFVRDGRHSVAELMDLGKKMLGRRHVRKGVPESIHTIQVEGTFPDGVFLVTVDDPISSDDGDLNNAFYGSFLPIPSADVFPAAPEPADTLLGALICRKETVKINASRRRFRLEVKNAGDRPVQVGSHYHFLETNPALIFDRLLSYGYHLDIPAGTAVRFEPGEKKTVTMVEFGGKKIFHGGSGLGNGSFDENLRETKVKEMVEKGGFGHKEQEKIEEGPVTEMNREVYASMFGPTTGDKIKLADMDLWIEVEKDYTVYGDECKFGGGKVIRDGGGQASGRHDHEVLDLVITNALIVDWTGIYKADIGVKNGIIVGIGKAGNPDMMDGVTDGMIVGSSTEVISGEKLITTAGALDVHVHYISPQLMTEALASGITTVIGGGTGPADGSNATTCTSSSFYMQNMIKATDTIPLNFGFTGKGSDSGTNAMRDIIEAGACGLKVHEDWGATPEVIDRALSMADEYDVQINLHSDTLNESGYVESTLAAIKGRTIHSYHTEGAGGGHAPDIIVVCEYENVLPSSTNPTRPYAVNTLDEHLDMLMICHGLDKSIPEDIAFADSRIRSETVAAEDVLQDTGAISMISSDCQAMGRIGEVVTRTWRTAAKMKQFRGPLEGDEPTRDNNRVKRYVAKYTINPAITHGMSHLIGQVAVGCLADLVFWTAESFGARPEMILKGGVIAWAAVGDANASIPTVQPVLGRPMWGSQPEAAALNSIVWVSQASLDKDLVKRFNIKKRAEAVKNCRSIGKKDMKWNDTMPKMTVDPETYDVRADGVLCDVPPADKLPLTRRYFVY
T2 sequence (O13465 whole entry): as above

SMILES | MIC (C. neoformans) | MIC (C. neoformans H99 [1]; [3]) | MIC (C. neoformans H99 [1]; [4]) | MIC (C. neoformans H99 [1]; [5]) | MIC (C. neoformans H99 [1]; [6]) | MICURE (yeast urease activity; [7]) | MICURE (yeast urease activity; [8]) | MFC (C. neoformans H99 [2]; [9]) | MFC (C. neoformans H99 [2]; [10]) | MFC (C. neoformans H99 [2]; [11]) | IC50 (C. neoformans urease)
CCCCNC(=S)NC(=O)c1ccccc1 [Compound 4, N-(butylcarbamothioyl)benzamide] | 31.25 to 62.5 µg/mL | – | – | – | – | – | – | – | – | – | –
O=C(NC(=[Se])Nc1cccc(Cl)c1)c1ccccc1 [BSU7] | – | 8 µg/mL (≈ 23.7 µM) | 0.25 µg/mL (≈ 0.74 µM) | 4 µg/mL (≈ 11.8 µM) | 0.12 µg/mL (≈ 0.355 µM) | 0.12 mg/L | 0.06 mg/L | 16 µg/mL (≈ 47.4 µM) | 4 µg/mL (≈ 11.8 µM) | 0.25 µg/mL (≈ 0.74 µM) | 7.59 nM and 7.58 nM
O=C(NC(=[Se])Nc1cccc([N+](=O)[O-])c1)c1ccccc1 [BSU11] | – | 32 µg/mL (≈ 91.9 µM) | 1 µg/mL (≈ 2.87 µM) | 16 µg/mL (≈ 45.9 µM) | 1 µg/mL (≈ 2.87 µM) | 1 mg/L | 1 mg/L | 64 µg/mL (≈ 184 µM) | > 16 µg/mL | 1 µg/mL (≈ 2.87 µM) | 7.91 nM and 7.93 nM
O=C(NC(=[Se])Nc1ccccc1[N+](=O)[O-])c1ccccc1 [BSU10] | – | 8 µg/mL (≈ 23 µM) | 1 µg/mL (≈ 2.87 µM) | 8 µg/mL (≈ 23 µM) | 1 µg/mL (≈ 2.87 µM) | 1 mg/L | 1 mg/L | 16 µg/mL (≈ 45.9 µM) | 16 µg/mL (≈ 45.9 µM) | 2 µg/mL (≈ 5.74 µM) | 8.68 nM and 8.67 nM

Reference: article PMC12461339, “Benzoylselenoureas: A Novel Dual-Action Inhibitor Targeting Fungal Growth and Urease Activity in Cryptococcus neoformans” (ACS Omega, 2025)
